Patent US4492651A, “Cyclic hexapeptides” (American Home Products Corporation, priority 1983, dated 1985)
Square brackets hold non-standard residues; d marks the D form.

Test system: growth hormone release
Experiment: suppression of growth hormone release in arginine stimulated rats (plasma GH by radioimmunoassay)
Assay type: in vivo
Conditions: Nembutal-anaesthetised albino male rats, blood 15 min after peptide
Description: The potent inhibition of growth hormone secretion was established for the compounds of this invention by subjecting the representative product of Example 5 to the following standard procedure involving suppression of growth hormone release in arginine stimulated rats:
Albino male rats are administered Nembutal intraperitoneally at a dose of 50 milligrams per kilogram. Fifteen minutes later a subcutaneous injection of the product of Example 5 is administered. Ten minutes later 0.5 milliliters of arginine (300 milligrams per milliliter, pH 7.2) is injected into the heart. Five minutes after receipt of the arginine the rats are decapitated and blood is collected into Trasylol-EDTA. An appropriate aliquot is assayed for growth hormone (GH) by radioimmuno-assay. The results of the test procedure were compared with those obtained in the same manner with Compound 8 of Table 2 disclosed by Veber et al., loc. cit., as follows: […]

cyclo(PF[dW]KTF) [Compound 8]
Plasma GH Levels (dose of peptide 0.1 μg/kg subcutaneous): 278 ± 89 ng/mL | Plasma GH Levels (dose of peptide 1.0 μg/kg subcutaneous): 169 ± 19 ng/mL | Plasma GH Levels (dose of peptide 10.0 μg/kg subcutaneous): 126 ± 6 ng/mL
